Results taken from US4528289A, “Corynantheine derivates, processes for their preparation, and their use” (Dr. Willmar Schwabe GmbH & Co., priority 1982, dated 1985).

Legend:
[1] = system: heart rate of spontaneously hypertonic rats; assay: heart rate of spontaneously hypertonic rats after oral administration; assay type: in vivo, rat; details: 2 h
Excerpt: (§1) The blood pressure-lowering action of the compound THCN according to the present invention and of DHCN was investigated on spontaneously hypertonic rats after oral administration and compared with that of ajmalicine. The method thereby used for the measurement of the systolic blood pressure and of the heart rate on rats is described in Arzneimittel-Forschung, 18, 1285-1287/1968. Before commencement of the experiments, the animals were familiarised with the measurement procedure.
(§2) In a first series of experiments, the systolic blood pressure and the heart rate were investigated 2 hours after the oral administration of the test substances in the form of their hydrochlorides. The substances were suspended in 0.2% agar and administered in a volume of 10 ml./kg. It follows therefrom that all three substances lower the blood pressure in a dosage-dependent manner.

[2] = system: systolic blood pressure of spontaneously hypertonic rats; assay: chronological course of blood pressure decrease in spontaneously hypertonic rats; assay type: in vivo, rat
Excerpt: as §1
(§3) In a further series of experiments, the chronological course of the blood pressure lowering was investigated. For this purpose, spontaneously hypertonic rats were treated with 10 mg./kg. DHCN and with 5 or 10 mg./kg. THCN per os and in each case 6 or 12 animals of the treated group were measured at definite times after the treatment.

[3] = system: stereotypy brought about by apomorphine; assay: potentiation of apomorphine stereotypy in mice; assay type: in vivo; details: oral, same dosage range (10 to 20 mg/kg)
[4] = acute toxicity, LD50 (Litchfield and Wilcoxon) on mice; assay type: in vivo; details: mouse, in vivo, mice
Excerpt: (§4) The toxicity of the compounds according to the present invention can be seen from the LD50 values given in the following Table 8 for intravenous, intraperitoneal and oral administration.

mice = assay: as above; assay type: in vivo; details: i.v., i.p. and oral LD50, mice
Excerpt: as §4

[5] = system: systolic blood pressure of spontaneously hypertonic rats; assay: systolic blood pressure of spontaneously hypertonic rats after oral administration; assay type: in vivo, rat; details: for systolic blood pressure, subsequent value / systolic blood pressure, Δ / systolic blood pressure, Δ %: 2 h
Excerpt: as §1, §2

CHCl3 arrhythmia = assay: inhibition of CHCl3 arrhythmia on mice, i.p.; assay type: in vivo
Excerpt: (§5) The antiarrhythmic effectiveness of DHCN and THCN was investigated on mice and rats.

[6] = system: heart rate of spontaneously hypertonic rats; assay: chronological course of heart rate of spontaneously hypertonic rats; assay type: in vivo, rat; design: heart rate at time t: unit not given here
Excerpt: as §1, §3

[7] = system: blood pressure, vessels, central nervous system; assay: general pharmacological action (statement in words); details: in vivo
[8] = system: aconitine-induced arrythmias; assay: protection against aconitine-induced arrhythmias in urethane-narcotised rats, i.v.; assay type: in vivo; details: 2 to 5 mg/kg (THCN)
Excerpt: as §5

[9] = system: heart rate of spontaneously hypertonic rats; assay: chronological course of heart rate of spontaneously hypertonic rats; assay type: in vivo, rat; design: unit not given here; details: 20 mg/kg, 4 h.
circulatory disturbances = details: known therapy of circulatory disturbances; cited from earlier work
[10] = 4 mg/kg p.o., dihydrocorynantheine
[11] = 8.6 mg/kg p.o., dihydrocorynantheine
[12] = 18 mg/kg p.o., dihydrocorynantheine
[13] = 32 mg/kg p.o., dihydrocorynantheine
[14] = 56 mg/kg p.o., dihydrocorynantheine
[15] = 18 mg/kg p.o., ajmalicine hydrochloride
[16] = 40 mg/kg p.o., ajmalicine hydrochloride
[17] = 56 mg/kg p.o., ajmalicine hydrochloride
[18] = 86 mg/kg p.o., ajmalicine hydrochloride
[19] = 100 mg/kg p.o., ajmalicine hydrochloride

Q: What does the source list for `CC[C@H]1CN2CCc3c([nH]c4ccccc34)[C@@H]2C[C@@H]1/C(=C\OC)C(=O)OC` [DHCN, dihydrocorynantheine]?
A: heart rate, subsequent value [1, 10]: 485 ± 14 beats/min.; heart rate, Δ [1, 10]: 6 ± 20 beats/min.; heart rate, Δ % [1, 10]: 1.5 ± 4.2%; heart rate, subsequent value [1, 11]: 442 ± 19 beats/min.; heart rate, Δ [1, 11]: -30 ± 18 beats/min.; heart rate, Δ % [1, 11]: -6.2 ± 3.7%; heart rate, subsequent value [1, 12]: 492 ± 12 beats/min.; heart rate, Δ % [1, 12]: -0.6 ± 2.9%; heart rate, subsequent value [1, 13]: 477 ± 5 beats/min.; heart rate, Δ [1, 13]: -16 ± 11 beats/min.; heart rate, Δ % [1, 13]: -3.1 ± 2.2%; heart rate, subsequent value [1, 14]: 502 ± 14 beats/min.; heart rate, Δ [1, 14]: 3 ± 21 beats/min.; heart rate, Δ % [1, 14]: 2.9%; percentage decrease of blood pressure ([2]; 10 mg/kg p.o., 10 min.): 10.6%; percentage decrease of blood pressure ([2]; 10 mg/kg p.o., 20 min.): 14.5%; percentage decrease of blood pressure ([2]; 10 mg/kg p.o., 40 min.): 14.5%; percentage decrease of blood pressure ([2]; 10 mg/kg p.o., 80 min.): 6.1%; percentage decrease of blood pressure ([2]; 10 mg/kg p.o., 2 h.): 3.7%; percentage decrease of blood pressure ([2]; 10 mg/kg p.o., 4 h.): 0.8%; percentage decrease of blood pressure ([2]; 10 mg/kg p.o., 6 h.): 1.4%; blood pressure lowering action compared (in words) ([2]; DHCN 10 mg/kg vs THCN 5 mg/kg p.o.): the same action; time of maximum blood pressure lowering ([2]; DHCN 10 mg/kg, THCN 5 mg/kg p.o.): about 40 minutes; blood pressure after the maximum (in words) ([2]; DHCN 10 mg/kg, THCN 5 mg/kg p.o., after about 40 minutes): the blood pressure again increases to the initial value; properties influencing the central nervous system (in words) [3]: no properties influencing the central nervous system; LD50 ([4]; ip): 98 mg/kg; LD50 ([4]; iv): 13 mg/kg; LD50 ([4]; po): 210 mg/kg; toxicities compared (in words) (mice): almost the same; systolic blood pressure, subsequent value [5, 10]: 187 ± 6 mm Hg; systolic blood pressure, Δ [5, 10]: -12.7 ± 7 mm Hg; systolic blood pressure, Δ % [5, 10]: -5.8 ± 3.3%; systolic blood pressure, subsequent value [5, 11]: 187 ± 5 mm Hg; systolic blood pressure, Δ [5, 11]: -13 ± 9 mm Hg; systolic blood pressure, Δ % [5, 11]: -6.2 ± 4.0%; systolic blood pressure, subsequent value [5, 12]: 181 ± 3 mm Hg; systolic blood pressure, Δ [5, 12]: -21 ± 5 mm Hg; systolic blood pressure, Δ % [5, 12]: -10.1 ± 2.1%; systolic blood pressure, subsequent value [5, 13]: 175 ± 10 mm Hg; systolic blood pressure, Δ [5, 13]: -29 ± 8 mm Hg; systolic blood pressure, Δ % [5, 13]: -14.6 ± 4.1%; systolic blood pressure, subsequent value [5, 14]: 152 ± 6 mm Hg; systolic blood pressure, Δ [5, 14]: -41 ± 5 mm Hg; systolic blood pressure, Δ % [5, 14]: -21.4 ± 2.7%; inhibition in % of CHCl3 arrhythmia (CHCl3 arrhythmia; 10 mg/kg): 0%; inhibition in % of CHCl3 arrhythmia (CHCl3 arrhythmia; 15 mg/kg): 10%; inhibition in % of CHCl3 arrhythmia (CHCl3 arrhythmia; 25 mg/kg): 80%; heart rate at time t ([6]; 10 mg/kg p.o., 10 min.): 504; heart rate at time t ([6]; 10 mg/kg p.o., 20 min.): 515; heart rate at time t ([6]; 10 mg/kg p.o., 40 min.): 500; heart rate at time t ([6]; 10 mg/kg p.o., 80 min.): 516; heart rate at time t ([6]; 10 mg/kg p.o., 2 h.): 521; heart rate at time t ([6]; 10 mg/kg p.o., 4 h.): 517; heart rate at time t ([6]; 10 mg/kg p.o., 6 h.): 507; heart rate change (in words) ([6]; DHCN 10 mg/kg, THCN 10 mg/kg, on the border of statistical significance): an increase is to be observed; period and strength of activity compared with ajmalicine (in words) [7]: greater than those of the known comparison compound ajmalicine

Q: With `COC(=O)C1=CO[C@@H](C)[C@H]2CN3CCc4c([nH]c5ccccc45)[C@@H]3C[C@H]12` [ajmalicine, reference compound] as the molecule, how does the “heart rate, subsequent value” [1, 15] read?
A: The value was 492 ± 27 beats/min.

Q: What about the “heart rate, Δ” value [1, 15] of the same molecule?
A: The value was 30 ± 15 beats/min.

Q: And the “heart rate, Δ %” value [1, 15]?
A: Its value is 7.3 ± 4.3%.

Q: And the “heart rate, subsequent value” [1, 16]?
A: The value was 513 ± 11 beats/min.

Q: And the “heart rate, Δ” value [1, 16]?
A: Its value is 51 ± 19 beats/min.

Q: And the “heart rate, Δ %” value [1, 16]?
A: The value was 11.9 ± 4.4%.

Q: And the “heart rate, subsequent value” [1, 17]?
A: Its value is 522 ± 9 beats/min.

Q: And the “heart rate, Δ” value [1, 17]?
A: Its value is 4 beats/min.

Q: What about the “heart rate, Δ %” value [1, 17] of the same molecule?
A: The value was 0.8 ± 1.6%.

Q: And the “heart rate, subsequent value” [1, 18]?
A: Its value is 511 ± 4 beats/min.

Q: And the “heart rate, Δ” value [1, 18]?
A: Its value is 14 ± 2 beats/min.

Q: What about the “heart rate, Δ %” value [1, 18] of the same molecule?
A: Its value is 2.9 ± 2.0%.

Q: And the “heart rate, subsequent value” [1, 19]?
A: The value was 515 ± 9 beats/min.

Q: And the “heart rate, Δ” value [1, 19]?
A: Its value is 26 ± 11 beats/min.

Q: What about the “heart rate, Δ %” value [1, 19] of the same molecule?
A: The value was 5.3%.

Q: What about the “percentage decrease of blood pressure” value ([2]; 20 mg/kg, 10 min.) of the same molecule?
A: The value was 9.5%.

Q: What about the “percentage decrease of blood pressure” value ([2]; 20 mg/kg, 20 min.) of the same molecule?
A: The value was 13.0%.

Q: And the “percentage decrease of blood pressure” value ([2]; 20 mg/kg, 40 min.)?
A: The value was 14.2%.

Q: What about the “percentage decrease of blood pressure” value ([2]; 20 mg/kg, 80 min.) of the same molecule?
A: The value was 9.8%.

Q: And the “percentage decrease of blood pressure” value ([2]; 20 mg/kg, 2 h.)?
A: The value was 5.8%.

Q: What about the “percentage decrease of blood pressure” value ([2]; 20 mg/kg, 4 h.) of the same molecule?
A: Its value is -1.2%.

Q: What about the “percentage decrease of blood pressure” value ([2]; 20 mg/kg, 6 h.) of the same molecule?
A: Its value is -0.5%.

Q: And the “properties influencing the central nervous system (in words)” value [3]?
A: The value was “no properties influencing the central nervous system”.

Q: And the LD50 ([4]; ip)?
A: Its LD50 is 90 mg/kg.

Q: And the LD50 ([4]; iv)?
A: The LD50 was 14 mg/kg.

Q: And the LD50 ([4]; po)?
A: Its LD50 is 360 mg/kg.

Q: What about the “toxicities compared (in words)” value (mice) of the same molecule?
A: The value was “almost the same”.

Q: And the “systolic blood pressure, subsequent value” [5, 15]?
A: The value was 198 ± 7 mm Hg.

Q: And the “systolic blood pressure, Δ” value [5, 15]?
A: Its value is -12 ± 2 mm Hg.

Q: What about the “systolic blood pressure, Δ %” value [5, 15] of the same molecule?
A: The value was -5.6 ± 1%.

Q: What about the “systolic blood pressure, subsequent value” [5, 16] of the same molecule?
A: The value was 173 ± 7 mm Hg.

Q: And the “systolic blood pressure, Δ” value [5, 16]?
A: Its value is -25 ± 6 mm Hg.

Q: What about the “systolic blood pressure, Δ %” value [5, 16] of the same molecule?
A: The value was -12.4 ± 3%.

Q: And the “systolic blood pressure, subsequent value” [5, 17]?
A: Its value is 172 ± 4 mm Hg.

Q: What about the “systolic blood pressure, Δ” value [5, 17] of the same molecule?
A: The value was -37 ± 5 mm Hg.

Q: And the “systolic blood pressure, Δ %” value [5, 17]?
A: The value was -17.5 ± 2.1%.

Q: And the “maximum blood pressure lowering” value ([5]; 56 mg/kg, not exceeded with dosages up to 100 mg/kg)?
A: Its value is “about 18%”.

Q: What about the “systolic blood pressure, subsequent value” [5, 18] of the same molecule?
A: Its value is 165 ± 11 mm Hg.

Q: What about the “systolic blood pressure, Δ” value [5, 18] of the same molecule?
A: Its value is -36 ± 12 mm Hg.

Q: And the “systolic blood pressure, Δ %” value [5, 18]?
A: Its value is -17.7 ± 6.1%.

Q: And the “systolic blood pressure, subsequent value” [5, 19]?
A: Its value is 165 ± 5 mm Hg.

Q: And the “systolic blood pressure, Δ” value [5, 19]?
A: The value was -33 ± 9 mm Hg.

Q: What about the “systolic blood pressure, Δ %” value [5, 19] of the same molecule?
A: Its value is -16.3 ± 4%.

Q: What about the “antiarrhythmic effectiveness, chloroform arrythmias (in words)” value (CHCl3 arrhythmia) of the same molecule?
A: The value was “no antiarrythmic effectiveness”.

Q: And the “inhibition in % of CHCl3 arrhythmia” value (CHCl3 arrhythmia; 25 mg/kg)?
A: Its value is 0%.

Q: What about the “antiarrhythmic effectiveness, aconitine-induced arrythmias (in words)” value [8] of the same molecule?
A: Its value is “no antiarrythmic effectiveness”.

Q: And the “heart rate at time t” value ([6]; 20 mg/kg, 10 min.)?
A: The value was 503.

Q: And the “heart rate at time t” value ([6]; 20 mg/kg, 20 min.)?
A: Its value is 505.

Q: What about the “heart rate at time t” value ([6]; 20 mg/kg, 40 min.) of the same molecule?
A: Its value is 482.

Q: And the “heart rate at time t” value ([6]; 20 mg/kg, 80 min.)?
A: Its value is 481.

Q: And the “heart rate at time t” value ([6]; 20 mg/kg, 2 h.)?
A: The value was 472.

Q: And the “heart rate at time t” value ([6]; 20 mg/kg, 6 h.)?
A: The value was 491.

Q: And the “heart rate at time t” value [9]?
A: Its value is 499.

Q: What about the “period of activity (in words)” value (circulatory disturbances) of the same molecule?
A: The value was “relatively short period of activity”.
